Results reported in patent US20050215607A1, “Drug composition for prevention or inhibition of advance of diabetic complication” (priority 2002, published 2005).
Structures can show the parent of a compound that is named as a salt. Each block holds one molecule with its values, some of them ahead of it.

Tests used:
[1] = system: type II diabetic patients; experiment: Clinical study in type II diabetic patients; format: in vivo, human; settings: for Change in HbA1C value, mean value: three times a day just before meals; for Change in 1 hour value of postprandial plasma glucose (PPG), mean value / Change in 2 hour value of postprandial plasma glucose (PPG), mean value / Change in early morning fasting plasma glucose (FPG), mean: at the final evaluation
Procedure: Using the pharmaceutical composition described in Example 1, a clinical study was conducted in type II diabetic patients under the following conditions.
Test drug and Mode of administration: Every patient orally administered either of a combination selected from the following combination groups (one tablet from each) three times a day just before meals (within 5 minutes before starting meal): • The present invention group: (1)+(4) • Positive control group: (2)+(3) • Positive control group: (3)+(4) • (1) a tablet comprising 10 mg of mitiglinide calcium salt hydrate; • (2) a tablet comprising 0.2 mg of voglibose (chemical name: (+)-1L-[1(OH),2,4,5/3]-5-[2-hydroxy-1-(hydroxymethyl)-ethyl]amino-1-C-(hydroxymethyl)-1,2,3,4-cyclohexaneterol); • (3) a placebo tablet of mitiglinide calcium salt hydrate not containing any active ingredient; and • (4) a placebo tablet of voglibose not containing any active ingredient. • Treatment period: 12 weeks
Observation item: The following items were measured before administration, at a certain fixed time after the start of administration and at the completion of administration, and their changes were calculated, or the frequency of adverse drug reactions was calculated, and then evaluated.

[2] = Required single dose to reduce HbA1C value; format: in vivo; settings: as a single dose
[3] = Disposition (half-life) of mitiglinide; settings: human, in vivo, oral; single dose of 5 mg and more
healthy male adults = experiment: Clinical study on administration timing; format: in vivo, human
Procedure: Administration timing before taking a meal was evaluated in healthy male adults. Used test drugs were a tablet comprising 10 mg of mitiglinide calcium salt hydrate and a placebo tablet. The tablet comprising 10 mg of mitiglinide calcium salt hydrate was administered at 0.5 min, 5 min, 10 min or 30 min before starting meal (Positive group), while the placebo tablet was administered at 0.5 min before starting meal. After administration, blood glucose levels were measured at starting meal and evaluated.

[4] = in comparison with voglibose and placebo

Structure (SMILES): OCC(CO)N[C@H]1C[C@](O)(CO)[C@@H](O)[C@H](O)[C@H]1O [voglibose, (+)-1L-[1(OH),2,4,5/3]-5-[2-hydroxy-1-(hydroxymethyl)-ethyl]amino-1-C-(hydroxymethyl)-1,2,3,4-cyclohexaneterol, reference compound]
- Change in HbA1C value, mean value ([1]; 4 weeks): −0.14%
- Change in HbA1C value, mean value ([1]; 8 weeks): −0.14%
- Change in HbA1C value, mean value ([1]; 12 weeks): −0.11%
- Change in 1 hour value of postprandial plasma glucose (PPG), mean value ([1]; treatment period 12 weeks): -24.8 mg/dL
- Change in 2 hour value of postprandial plasma glucose (PPG), mean value ([1]; treatment period 12 weeks): -5.1 mg/dL
- Change in early morning fasting plasma glucose (FPG), mean ([1]; treatment period 12 weeks): 0.5 mg/dL
- HbA1C value (result in words) ([1]; in comparison with placebo): significantly lowered
- Change in HbA1C value, mean value ([1]; the final evaluation): −0.11%
- Frequency of adverse drug reactions: gastrointestinal disorder ([1]; treatment period 12 weeks): 24.5%
- Frequency of adverse drug reactions: hypoglycemic symptoms ([1]; treatment period 12 weeks): 4.5%

- half-life [3]: ~1.5 h
Structure (SMILES): O=C(O)[C@H](CC(=O)N1C[C@H]2CCCC[C@H]2C1)Cc1ccccc1 [mitiglinide]
- required dosage to reduce HbA1C value significantly [2]: ≥ 5 mg

- Blood glucose level at starting meal, mean (healthy male adults; 10 mg tablet administered 0.5 min before starting meal): 87.0 mg/dL
- Blood glucose level at starting meal, mean (healthy male adults; 10 mg tablet administered 5 min before starting meal): 83.8 mg/dL
- Blood glucose level at starting meal, mean (healthy male adults; 10 mg tablet administered 10 min before starting meal): 84.2 mg/dL
- Blood glucose level at starting meal, mean (healthy male adults; 10 mg tablet administered 30 min before starting meal): 55.7 mg/dL
- blood glucose level at starting meal (result in words) (healthy male adults; administered at 30 minutes before starting meal): notably declined
- frequencies of hypoglycemic symptoms and gastrointestinal disorders (result in words) ([1]; human, in vivo): decreased
Structure (SMILES): O=C(O)[C@H](CC(=O)N1C[C@H]2CCCC[C@H]2C1)Cc1ccccc1 [Mitiglinide calcium salt hydrate, (+)-monocalcium bis[(2S, 3a, 7a-cis)-α-benzylhexahydro-γ-oxo-2-isoindolinebutyrate] dihydrate]
- blood glucose level at starting meal (result in words) (healthy male adults; administered within 10 minutes before starting meal): able to maintain good blood glucose level
- Change in HbA1C value, mean value ([1]; 4 weeks): −0.30%
- Change in HbA1C value, mean value ([1]; 8 weeks): −0.46%
- Change in HbA1C value, mean value ([1]; 12 weeks): −0.46%
- HbA1C value (result in words) ([1]; after 4 weeks after the start of administration, in comparison with voglibose and placebo): significantly lowered
- Change in 1 hour value of postprandial plasma glucose (PPG), mean value ([1]; treatment period 12 weeks): -53.1 mg/dL
- Change in 2 hour value of postprandial plasma glucose (PPG), mean value ([1]; treatment period 12 weeks): -50.1 mg/dL
- Change in early morning fasting plasma glucose (FPG), mean ([1]; treatment period 12 weeks): -8.0 mg/dL
- Frequency of adverse drug reactions: gastrointestinal disorder ([1]; human, in vivo, 12 weeks): 17.6%
- Frequency of adverse drug reactions: hypoglycemic symptoms ([1]; human, in vivo, 12 weeks): 2.0%
- 1 hour and 2 hour values of postprandial plasma glucose (PPG) (result in words) [1, 4]: significantly lowered
- early morning fasting plasma glucose (FPG) (result in words) [1, 4]: significantly lowered
- Change in HbA1C value, mean value ([1]; the final evaluation): −0.44%
